Experimental data reported in patent US12383545B1, “Treatment of migraine” (priority 2018, dated 2025).

What was measured:
[1] = system: participants with episodic migraine; assay: Study B: AIM-D PDA and PI domain scores over 52 weeks; format: in vivo, human; conditions: atogepant 60 mg, mITT Population
Source text: The Activity in Migraine Diary (AIM-D) evaluates the impact of migraine on the performance of daily activities and physical impairment using an electronic daily diary. In particular, the AIM-D is comprised of two domains that evaluate Performance of Daily Activities (PDA) and Physical Impairment (PI). Assessed items for the AIM-D PDA domain include household chores, errands, leisure activities at home, social or leisure activities outside the home, strenuous physical activities, concentration, and thinking clearly. Assessed items for the AIM-D PI Domain include walking, moving one's body, bending forward, and moving one's head. Response options for each item range from “not difficult at all” to “I could not do it at all” on a 6-point rating scale. The AIM-D domain scores are scaled from 0-100, with higher scores indicating greater impact of migraine, and reductions from baseline in scores indicate improvement. See Cala et al., The Activity Impairment in Migraine-Diary (AIM-D): A Novel Migraine-Specific Patient-Reported Outcome Measure to Assess Functioning Based on Activity Impairment in Episodic and Chronic Migraine Patients, MTIS2018-005 (Sep. 5, 2018).
The negative change scores with confidence intervals that exclude 0 indicate a significant reduction in impairment due to migraine in PDA and PI.
Change scores with confidence intervals excluding zero were present at each time point assessed, indicating significant reduction in impairment due to migraine during the 52-week trial.

[2] = system: participants with episodic migraine; assay: Study B: adverse events (atogepant 60 mg QD vs oral standard of care); format: in vivo, human
Description: Study B: A phase 3, multicenter, randomized, open label study was conducted to evaluate the long-term safety and tolerability of oral atogepant for the prevention of migraine in participants with episodic migraine (Study B). The study objective was to evaluate the safety and tolerability of daily treatment with atogepant 60 mg QD when administered over 52 weeks for the prevention of migraine in participants with episodic migraine.
A total of 744 participants from 106 sites were randomized in a ratio of 5:2 to the following treatment groups: atogepant 60 mg QD or oral standard of care (SOC) migraine prevention medication. The latter arm was included to contextualize safety data from the atogepant-treated participants, and efficacy measures were collected from the atogepant arm only. Efficacy measures were evaluated using the modified intent-to-treat (mITT) population and a mixed-effects model for repeated measures and included changes from baseline in monthly migraine days (MDDs), moderate/severe headache days, and acute medication use days, as well as the proportion of responders based on reductions in MMDs.
Regardless of which of these options was chosen, the participant was allowed to continue in the study. […]

Structure (SMILES): C[C@@H]1[C@H](c2c(F)ccc(F)c2F)C[C@H](NC(=O)c2cnc3c(c2)C[C@@]2(C3)C(=O)Nc3ncccc32)C(=O)N1CC(F)(F)F [atogepant]
- Change from Baseline in AIM-D Monthly PDA Domain Score, LS Mean Δ from baseline ([1]; Weeks 1-4, MMRM): −7.61
- Change from Baseline in AIM-D Monthly PI Domain Score, LS Mean Δ from baseline ([1]; Weeks 1-4, MMRM): −5.56
- Change from Baseline in AIM-D Monthly PDA Domain Score, LS Mean Δ from baseline ([1]; Weeks 5-8): −8.16
- Change from Baseline in AIM-D Monthly PI Domain Score, LS Mean Δ from baseline ([1]; Weeks 5-8): −5.82
- Change from Baseline in AIM-D Monthly PDA Domain Score, LS Mean Δ from baseline ([1]; Weeks 9-12): −8.53
- Change from Baseline in AIM-D Monthly PI Domain Score, LS Mean Δ from baseline ([1]; Weeks 9-12): −6.13
- Change from Baseline in AIM-D Monthly PDA Domain Score, LS Mean Δ from baseline ([1]; Weeks 13-16): −8.66
- Change from Baseline in AIM-D Monthly PI Domain Score, LS Mean Δ from baseline ([1]; Weeks 13-16): −6.22
- Change from Baseline in AIM-D Monthly PDA Domain Score, LS Mean Δ from baseline ([1]; Weeks 17-20): −9.02
- Change from Baseline in AIM-D Monthly PI Domain Score, LS Mean Δ from baseline ([1]; Weeks 17-20): −6.38
- Change from Baseline in AIM-D Monthly PDA Domain Score, LS Mean Δ from baseline ([1]; Weeks 21-24): −9.11
- Change from Baseline in AIM-D Monthly PI Domain Score, LS Mean Δ from baseline ([1]; Weeks 21-24): −6.43
- Change from Baseline in AIM-D Monthly PDA Domain Score, LS Mean Δ from baseline ([1]; Weeks 25-28): −9.16
- Change from Baseline in AIM-D Monthly PI Domain Score, LS Mean Δ from baseline ([1]; Weeks 25-28): −6.40
- Change from Baseline in AIM-D Monthly PDA Domain Score, LS Mean Δ from baseline ([1]; Weeks 29-32): −9.22
- Change from Baseline in AIM-D Monthly PI Domain Score, LS Mean Δ from baseline ([1]; Weeks 29-32): −6.51
- Change from Baseline in AIM-D Monthly PDA Domain Score, LS Mean Δ from baseline ([1]; Weeks 33-36): −9.61
- Change from Baseline in AIM-D Monthly PI Domain Score, LS Mean Δ from baseline ([1]; Weeks 33-36): −6.94
- Change from Baseline in AIM-D Monthly PDA Domain Score, LS Mean Δ from baseline ([1]; Weeks 37-40): −9.61
- Change from Baseline in AIM-D Monthly PI Domain Score, LS Mean Δ from baseline ([1]; Weeks 37-40): −6.93
- Change from Baseline in AIM-D Monthly PDA Domain Score, LS Mean Δ from baseline ([1]; Weeks 41-44): −9.77
- Change from Baseline in AIM-D Monthly PI Domain Score, LS Mean Δ from baseline ([1]; Weeks 41-44): −7.01
- Change from Baseline in AIM-D Monthly PDA Domain Score, LS Mean Δ from baseline ([1]; Weeks 45-48): −9.79
- Change from Baseline in AIM-D Monthly PI Domain Score, LS Mean Δ from baseline ([1]; Weeks 45-48): −7.02
- Change from Baseline in AIM-D Monthly PDA Domain Score, LS Mean Δ from baseline ([1]; Weeks 49-52, MMRM): −10.17
- Change from Baseline in AIM-D Monthly PI Domain Score, LS Mean Δ from baseline ([1]; Weeks 49-52, MMRM): −7.20
- Death, n (%) ([2]; 52-week open-label, atogepant 60 mg QD or standard of care, safety population): (0.4) %
- deaths reported (considered not related to atogepant) ([2]; atogepant 60 mg QD): Two
